Data as given in PMC6218659, “Structures of DPAGT1 Explain Glycosylation Disease Mechanisms and Advance TB Antibiotic Design” (Cell, 2018).
Converted amounts (≈) assume the structure as drawn. Like-named read-outs stand apart in the source and are kept apart here.

Key:
B. subtilis EC1524 = test: Micro-broth dilution and drop plate antimicrobial susceptibility test; type: cell-based, Bacillus subtilis
Protocol: (§1) In a sterile 96-well plate, serial dilutions were made with the test substance to final volume of 50 μl. Inoculum was then prepared in Mueller-Hinton broth to 0.5 McFarland and diluted before adding 50 μl to the well to make ∼1x10^5 CFU/ml. The culture plate was incubated at 35 °C for 20-24 hrs. A positive growth control and sterility wells were also prepared along with the culture wells. Absorbance at OD600 was taken using BMG Labtech SPECTROstar Omega spectrophotometer. MIC is determined by the lowest concentration without growth. IC50 is determined from plotting a dose-response curve, see Data Analysis below. To determine the MBC, using a multi-channel pipette, 1 μl of culture broth was taken from the same 96-well microdilution growth plate and carefully inoculated on surface of MH agar plate. The plate is then incubated for additional 20 hrs. at 35 °C. The MBC value is the lowest concentration without observed growth on the agar.

S. aureus ATCC29219 = test: as above; type: cell-based; details: Staphylococcus aureus
Protocol: as §1

P. aeruginosa ATCC27853 = test: as above; type: cell-based; details: Pseudomonas aeruginosa
Protocol: as §1

E. coli ATCC25922 = test: as above; type: cell-based; details: Escherichia coli
Protocol: as §1

B. cereus ATCC11778 = test: as above; type: cell-based, Bacillus cereus
Protocol: as §1

Mtb H37Rv ATCC27294 = test: Minimum inhibitory concentrations testing against Mtb; type: cell-based, Mycobacterium tuberculosis; details: for MIC: Mycobacterium tuberculosis, 168 h
Raji cells = test: Cell proliferation assay (MTS); type: cell-based, human; details: 24 hrs
Protocol: (§2) In sterile 96-well plate, each well was seeded with ∼1x10^5 cells. The cells are then grown confluent overnight in 100 μl DMEM with 10% FBS. The medium is replenished with DMEM with 2% FBS and added vehicle control or test substance the next day. For test substance in methanol, stock was added to 25 μl of DMEM with 2% FBS or PBS and placed in the laminar flow hood to let the methanol evaporate (about 1-3 hrs). Once the methanol has evaporated, DMEM with 2% FBS was added to final volume of 100 μl of desired test concentration. […] Cells are grown for additional 24 hrs. The cell viability was determined by using Promega CellTiter 96^© AQueous One Solution Cell Proliferation Assay (3-(4,5-dimethylthiazol-2-yl)-5-(3-carboxymethoxyphenyl)-2-(4-sulfophenyl)-2H-tetrazolium, inner salt; MTS) System following the manufacture protocol.

HEK293 cells = test: Cell proliferation assay (MTS); type: cell-based, human
Protocol: as §2

HepG2 cells = test: Cell proliferation assay (MTS); type: cell-based, human
Protocol: as §2

[1] = tested on: Mtb-infected J774A.1 macrophages; test: Efficacy against Mtb growing in infected macrophages; details: J774A.1 macrophages treated 3 or 7 days
[2] = minimal lethal dose / MIC, 800 μg mL-1 used for >400
[3] = MTS cell proliferation assay, 24 hrs, highest concentration 400 µg mL-1
[4] = serial 2-fold dilutions (Table S6)

## CCCCCCCCCC(=O)N[C@H]1[C@H](O[C@H]2O[C@H](CO)[C@@H](O)[C@H](O)[C@H]2NC(=O)CCCCCCCCC)O[C@H](C[C@@H](O)[C@H]2O[C@@H](n3ccc(=O)[nH]c3=O)[C@H](O)[C@@H]2O)[C@H](O)[C@@H]1O [TUN-10,10, Di-N-decanoyl-tunicamycin]
B. subtilis EC1524; Bacillus subtilis, EC1524
  IC50: 0.12 ± 0.04 µg/mL (≈ 0.137 µM)
  MBC: > 0.39 µg/mL
  MIC: 0.33 ± 0.11 µg/mL (≈ 0.377 µM)
B. subtilis EC1524; Bacillus subtilis, EC1524, read-out: Minimal Inhibitory Concentration, B. subtilis EC1524
  MIC: 0.39 µg/mL (≈ 0.446 µM)
B. subtilis EC1524; [2]
  Relative Therapeutic Index (RTI), B. subtilis EC1524: 2050
S. aureus ATCC29219
  IC50: 49.3 µg/mL (≈ 56.3 µM)
  MBC: 400 µg/mL (≈ 457 µM)
  MIC: 83 ± 29 µg/mL (≈ 94.9 µM)
P. aeruginosa ATCC27853
  IC50: 53.5 µg/mL (≈ 61.1 µM)
  MBC: 400 µg/mL (≈ 457 µM)
  MIC: 83 ± 29 µg/mL (≈ 94.9 µM)
E. coli ATCC25922
  IC50: 91.6 µg/mL (≈ 105 µM)
  MBC: 400 µg/mL (≈ 457 µM)
  MIC: 330 ± 120 µg/mL (≈ 377 µM)
B. cereus ATCC11778; B. cereus, micro-broth dilution, mean ± SEM (n=3)
  MIC: 0.33 ± 0.11 µg/mL (≈ 0.377 µM)
B. cereus ATCC11778; Bacillus cereus, ATCC11778
  IC50: 0.046 µg/mL (≈ 0.0526 µM)
  MBC: 12.5 µg/mL (≈ 14.3 µM)
  MIC: 0.33 ± 0.11 µg/mL (≈ 0.377 µM)
B. cereus ATCC11778; Bacillus cereus, ATCC 11778 / NRRL11778, read-out: Minimal Inhibitory Concentration, B. cereus NRRL 11778
  MIC: 0.39 µg/mL (≈ 0.446 µM)
B. cereus ATCC11778; [2]
  Relative Therapeutic Index (RTI), B. cereus NRRL 11778: 2050
Mtb H37Rv ATCC27294; read-out: 1-week MIC in 7H9/ADC/Tw
  MIC: 1.2 ± 0.3 µg/mL (≈ 1.37 µM)
Mtb H37Rv ATCC27294; read-out: 1-week MIC in GAST/Fe
  MIC: 0.1 ± 0.1 µg/mL (≈ 0.114 µM)
Mtb H37Rv ATCC27294; read-out: Minimal Inhibitory Concentration, Mtb H37RV a
  MIC: 1.2 µg/mL (≈ 1.37 µM)
Mtb H37Rv ATCC27294; read-out: Minimal Inhibitory Concentration, Mtb H37RV b
  MIC: 0.1 µg/mL (≈ 0.114 µM)
Mtb H37Rv ATCC27294; minimal lethal dose / MIC, 7H9/ADC/Tw, 800 μg mL-1 used for >400
  Relative Therapeutic Index (RTI), Mtb H37RV a: 667
Mtb H37Rv ATCC27294; minimal lethal dose / MIC, GAST/Fe, 800 μg mL-1 used for >400
  Relative Therapeutic Index (RTI), Mtb H37RV b: 8000
Raji cells
  LD50 values, Raji: 196.17 ± 47.61 µg/mL
HEK293 cells; [3]
  LD50 values, HEK293: N/A (N/A = not available. No or low cytotoxicity observed at highest, saturating concentration tested (400 µg mL-1))
HEK293 cells; [4]
  Minimal Lethal Dose, HEK 293: > 400 µg/mL
HepG2 cells; [3]
  LD50 values, HepG2: N/A (N/A = not available. No or low cytotoxicity observed at highest, saturating concentration tested (400 µg mL-1))
HepG2 cells; [4]
  Minimal Lethal Dose, HepG2: > 400 µg/mL
[1]; 1 × MIC
  reduction of intracellular bacterial burdens: 1 logs
[1]; 10 × MIC
  reduction of intracellular bacterial burdens: 2 logs
